Source: PMC10330721, “Chemo-enzymatic synthesis and biological activity evaluation of propenylbenzene derivatives” (Frontiers in Microbiology, 2023)
≈ marks a conversion by molar mass, not a printed value. Read-outs that look alike come from different tables or passages of the source.

Legend:
C. albicans 595/20 = experiment: Fungistatic activity assay, broth microdilution; assay type: cell-based; details: Candida albicans, 595/20, 24 h
Procedure: (§1) Fungistatic activity was determined using Candida albicans ATCC 90028 from the American Type Culture Collection (ATCC, Manassas, VA, United States), and clinical isolates, C. albicans 636/20, C. albicans 595/20, and C. albicans 38 obtained from Wrocław Medical University, Wrocław, Poland.
(§2) All compounds were tested for biological activity against C. albicans ATTC 90028, C. albicans 636/20, C. albicans 595/20, and C. albicans 38 using the broth microdilution method. YPD medium (20 g glucose, 20 g Bacto Peptone, 10 g yeast extract, and 1 L of distilled water, pH 6.5) was used for the tests. The compound solutions were prepared in DMSO and diluted in YPD to obtain final concentrations in the range of 10–250 μg/mL. One hundred microlitres of each solution was pipetted into the wells of a 96-well microtiter plate. The inoculum was standardized to 0.5 McFarland standard and then diluted to obtain a final suspension with a cell density of 0.5–2.5 × 10^3 CFU/mL. The inoculum size was 100 μL. The positive control comprised DMSO added in the same concentration as the tested compounds in the inoculum, whereas the negative control consisted of DMSO diluted in the broth without the addition of inoculum. The microtiter plates were incubated in a Biosan PST-60 HL Plate Shaker-Thermostat (Riga, Latvia) at 35°C under shaking at 1,000 rpm for 24 h.

C. albicans strains = experiment: Fungistatic activity assay, broth microdilution, values given over several strains; assay type: cell-based, Candida albicans
Procedure: as §1, §2

[1] = Haemolytic activity assay; assay type: cell-based; details: human red blood cells (RBCs) from healthy donors, 37°C, read-out: Percentage of haemolysis
Procedure: This test is based on comparison of the cytotoxicity of all tested compounds in human red blood cells (RBCs) with that in a control group. RBCs for this method were obtained from a blood center from examined and healthy donors. The compounds were tested at 10, 20, 40, 60, 80, and 100 μM concentrations. The control sample contained only ethanol in the same volume as the test samples. […] The samples were incubated at 37°C for 1 h. Then, the absorbance at 540 nm was measured using a UV–Vis spectrophotometer (Specord 40, Analytik Jena, Jena, Germany). The haemolytic activity of the compounds was determined as the ratio of the absorbance of haemoglobin in the test samples to that in completely haemolyzed cells multiplied by 100%.

RBCs membrane = experiment: Fluorescence spectroscopy of the RBCs membrane (DPH probe anisotropy); assay type: cell-based, human; details: for Fluorescence anisotropy of the DPH probe: membranes of RBCs, 37 °C; for Change in DPH anisotropy / RBCs membrane fluidity (in words): RBCs, 20, 60 and 100 μM
Procedure: Using the DPH probe, the anisotropy values of cell membranes of RBCs modified with the test compounds were measured. RBCs for this analysis were prepared according to the method described in subsection 2.5.3. Then, the DPH probe was added to RBCs with a haematocrit of 0.2%. The final concentration of the probe in the sample was 1.3 μM. The mixture was incubated protected from light at 37°C for 30 min. Then, the compounds dissolved in ethanol were added. The compounds were tested at 20, 60, and 100 μM concentrations. Samples with compounds and control samples with alcohol of the appropriate concentration were incubated at 37°C for 1 h. Measurements in triplicate were made in quartz cuvettes using a CARY Eclipse fluorimeter (Varian, San Diego, CA, United States) at 37°C. The excitation wavelength for the DPH probe is λexc = 360 nm and the emission wavelength is λem = 426 nm.

HepG2 cells = experiment: Resazurin-based viability assay; assay type: cell-based, human; details: for Effect on HepG2 proliferation / viability (in words): 24 h, 1, 50 and 200 μg/mL
Procedure: (§3) The human HepG2 and Caco-2 cell lines were obtained from the American Type Culture Collection (HB-8065™ and HTB-37™) and the MG-63 cell line was obtained from the European Collection of Authenticated Cell Cultures (Merck, Poznań, Poland). HepG2 cells were cultured in Dulbecco’s modified Eagle’s Medium - low glucose (Merck) supplemented with 10% foetal bovine serum (FBS) (Merck). Caco-2 cells were cultured in Dulbecco’s modified Eagle’s medium - high glucose (Merck) supplemented with 10% FBS, 2% HEPES buffer (Thermo Fisher Scientific, Warszawa, Poland), 1% Penicillin–Streptomycin-Amphotericin B Solution (100×, Merck), 1% MEM solution (100×, Thermo Fisher Scientific), and 1% Gentamycin Solution (10 mg/mL, Merck). MG-63 cells were cultured in Minimum Essential Medium (Merck) supplemented with 10% FBS. All cells were cultured in an atmosphere of 5% CO2 at 37°C.
(§4) HepG2, Caco-2, and […] were seeded in 96-well plates at 20,000 cells per well, and MG-63 cells at 10,000 cells per well, as described previously ([Marycz et al., 2012]; [Kornicka et al., 2017]). The tested compounds were dissolved in ethanol at 10 mg/mL. The concentrations were then adjusted to 1, 50, and 200 μg/mL in culture medium. Four controls were prepared: no ethanol added, and 0.01, 0.5, and 2% EtOH. The cells were treated with the compounds for 24 h. Then, cell viability was evaluated using the resazurin-based assay kit (TOX8), as described previously ([Grzesiak et al., 2011]; [Marycz et al., 2018]). The culture medium was replaced with medium containing 10% resazurin dye. The cells were incubated at 37°C in an atmosphere of 5% CO2 for 2 h. Absorbance levels were measured spectrophotometrically (Epoch) at a wavelengths of 600 nm for resazurin and 690 nm as a reference.

MG63 cells = experiment: Resazurin-based viability assay; assay type: cell-based, human; details: for Effect on MG63 proliferation / viability (in words): 24 h, 1, 50 and 200 μg/mL
Procedure: as §3, with “HepG2” for “The human HepG2 and Caco-2 cell lines were obtained from the American Type Culture Collection (HB-8065™ and HTB-37™) and the MG-63 cell line was obtained from the European Collection of Authenticated Cell Cultures (Merck, Poznań, Poland). HepG2”
The tested compounds were dissolved in ethanol at 10 mg/mL. The concentrations were then adjusted to 1, 50, and 200 μg/mL in culture medium. Four controls were prepared: no ethanol added, and 0.01, 0.5, and 2% EtOH. The cells were treated with the compounds for 24 h. […] The culture medium was replaced with medium containing 10% resazurin dye. The cells were incubated at 37°C in an atmosphere of 5% CO2 for 2 h. Absorbance levels were measured spectrophotometrically (Epoch) at a wavelengths of 600 nm for resazurin and 690 nm as a reference.

C. albicans ATTC18804 = test system: C. albicans ATTC18804; set-up: method as in Kubo et al., 1993; details: C. albicans ATTC18804 ref Kubo et al., 1993; cited from earlier work
[2] = test system: human colon carcinoma Caco-2 cell line; details: ref Lea et al., 2016; Padhy et al., 2022; cited from earlier work
C. albicans ATTC 90028 = experiment: Fungistatic activity assay, broth microdilution; assay type: cell-based; details: Candida albicans, ATTC90028, 24 h
Procedure: as §1, §2

C. albicans 38 = experiment: Fungistatic activity assay, broth microdilution; assay type: cell-based, Candida albicans
Procedure: as §1, §2

Caco-2 cells = experiment: Resazurin-based viability assay; assay type: cell-based, human; details: 24 h, 50 μg/mL
Procedure: as §3, §4

[3] = test system: human hepatocellular carcinoma HepG2 cells; set-up: method as in Yoo et al., 2005; Song et al., 2014, 2020; details: ref Yoo et al., 2005; Song et al., 2014, 2020; cited from earlier work
[4] = cited from earlier work

Molecule	hemolysis at 1 h, 10 µM [1]	hemolysis at 1 h, 20 µM [1]	hemolysis at 1 h, 40 µM [1]	hemolysis at 1 h, 60 µM [1]	hemolysis at 1 h, 80 µM [1]	hemolysis at 1 h, 100 µM [1]	Fluorescence anisotropy of the DPH probe (RBCs membrane; 20 µM)	Fluorescence anisotropy of the DPH probe (RBCs membrane; 60 µM)	Fluorescence anisotropy of the DPH probe (RBCs membrane; 100 µM)	Effect on MG63 proliferation / viability (in words) (MG63 cells)	other results
C/C=C/c1ccc2c(c1)OCO2 [1a, isosafrole]	2.41 ± 0.481%	1.54 ± 0.202%	2.18 ± 0.153%	2.4 ± 0.446%	2.585 ± 0.014%	2.55 ± 0.007%	0.262 ± 0.016	0.264 ± 0.030	0.237 ± 0.041	promoted MGC63 proliferation	MIC50 (C. albicans 595/20): 65 µg/mL (≈ 401 µM); MIC50 (C. albicans strains; Candida albicans, read-out: MIC50 (over all tested strains)): < 100 µg/mL; Effect on HepG2 proliferation / viability (in words) (HepG2 cells): more strongly significantly suppressed the viability; MIC (C. albicans ATTC18804): 100 µg/mL (≈ 617 µM); Apoptosis in Caco-2 cell line (in words) [2]: induced apoptosis
CC=Cc1ccccc1 [2a, prop-1-en-1-yl benzene]							0.262 ± 0.020	0.268 ± 0.023	0.267± 0.006	promoted MGC63 proliferation	MIC50 (C. albicans ATTC 90028): > 250 µg/mL; MIC50 (C. albicans 38; Candida albicans, 38, 24 h): > 250 µg/mL; Effect on HepG2 proliferation / viability (in words) (HepG2 cells): more strongly significantly suppressed the viability
CC(O)C(=O)c1ccccc1 (stereo not shown) [2c, 2-hydroxy-1-phenylpropan-1-one]	1.16 ± 0.027%	1.86 ± 0.697%	1.42 ± 0.55%	1.74 ± 0.59%	1.94 ± 0.154%	2.46 ± 0.322%	0.236 ± 0.026	0.240 ± 0.019	0.238 ± 0.002	promoted MGC63 proliferation	MIC50 (C. albicans ATTC 90028): > 250 µg/mL; MIC50 (C. albicans 38; Candida albicans, 38, 24 h): > 250 µg/mL; Change in DPH anisotropy / RBCs membrane fluidity (in words) (RBCs membrane): a decrease in anisotropy
COc1ccc(C(=O)C(C)O)cc1 (stereo not shown) [3c, 2-hydroxy-1-(4-methoxyphenyl)propan-1-one]	1.83 ± 0.355%	1.65 ± 0.509%	1.73 ± 0.174%	2.33 ± 0.436%	2.15 ± 0.161%	1.53 ± 0.134%	0.239 ± 0.006	0.249 ± 0.007	0.244 ± 0.003	promoted MGC63 proliferation	MIC50 (C. albicans 38; Candida albicans, C. albicans 38, 24 h, 35°C, tested 10–250 μg/mL, read-out: MIC50): 61 µg/mL (≈ 339 µM); Change in DPH anisotropy / RBCs membrane fluidity (in words) (RBCs membrane): a decrease in anisotropy; Effect on Caco-2 proliferative activity (in words) (Caco-2 cells): induced the proliferative activity; Effect on HepG2 proliferative activity (in words) (HepG2 cells; 24 h, 50 μg/mL): induced the proliferative activity; Effect on MG63 proliferative activity / viability (in words) (MG63 cells; 24 h, 50 μg/mL): induced the proliferative activity
C=CCc1ccc(O)c(OC)c1 [eugenol]											Effect on growth of HepG2 cells (in words) [3]: inhibited the growth; Apoptosis in Caco-2 cell line (in words) [2]: induced apoptosis
C=CCc1ccc2c(c1)OCO2 [safrole]											IC50 antioxidant activity ([4]; ref Eid and Hawash (2021)): 50.28 µg/mL (≈ 310 µM); Effect on growth of HepG2 cells (in words) [3]: inhibited the growth
isoeugenol [5a]							0.259 ± 0.009	0.272 ± 0.085	0.256 ± 0.023	promoted MGC63 proliferation	MIC50 (over all tested strains) (C. albicans strains; C. albicans 636/20, 595/20, 38 and ATTC90028): 52 to 88 µg/mL; MIC (C. albicans ATTC18804): 400 µg/mL; antioxidant activity ([4]; ref Siva et al. (2019)): 86%
